Assay results reported in publication PMC8478281, “Targeting the FtsZ Allosteric Binding Site with a Novel Fluorescence Polarization Screen, Cytological and Structural Approaches for Antibacterial Discovery” (Journal of Medicinal Chemistry, 2021).
Values after ≈ are worked out from the molar mass of the structure shown. Where two headings read alike, the source gives them in different places.

Legend:
[1] = target: T1, BsFtsZ (Bacillus subtilis, UniProt P17865); assay: Fluorescence anisotropy of probes after consecutive additions of FtsZ, GMPCPP, MgCl2 and PC190723; type: binding; details: for Fluorescence anisotropy (r): free probe: probe 10 μM in buffer; for Fluorescence anisotropy (r): + FtsZ (unassbld.) / Fluorescence anisotropy (r): + GMPCPP / Fluorescence anisotropy (r): + MgCl2 (polymer): probe 10 μM, FtsZ 10 μM; for Fluorescence anisotropy (r): + GMPCPP / Fluorescence anisotropy (r): + MgCl2 (polymer): GMPCPP 0.1 mM; for Fluorescence anisotropy (r): + MgCl2 (polymer): MgCl2 10 mM, 5–10 min
T1 construct: made in house
Protocol: (A) Fluorescence anisotropy values of the free probes (10 μM) in buffer, to which FtsZ (10 μM, unassembled) was added, followed by the slowly hydrolyzable GTP analogue GMPCPP (0.1 mM). BsFtsZ polymerization was then induced by the addition of MgCl2 (10 mM) and anisotropy values were recorded 5–10 min later. Nonfluorescent PC190723 (10 μM) was subsequently added to displace the fluorescent probe and anisotropy was measured 5 min later. (B) Fluorescence microscopy images of B. subtilis cells treated for 1.5 h with the minimal division inhibitory concentrations (MDC) of (S)-2 and each enantiomer of 5 (Table S1), acquired employing the probe fluorescence.
(§1) FtsZ from B. subtilis (BsFtsZ) was prepared as described previously.[35] FtsZ was assembled in 50 mM N-(2-hydroxyethyl)piperazine-N′-ethanesulfonic acid (HEPES)-KOH, 50 mM KCl, 1 mM ethylenediaminetetraacetic acid (EDTA), pH 6.8 (HEPES buffer) plus 10 mM MgCl2, and 1 mM GTP or 0.1 mM GMPCPP at 25 °C. FtsZ assembly was monitored by light scattering.[34]

[2] = target: T2, stabilized polymers of FtsZ from B. subtilis (Bacillus subtilis, UniProt P17865); assay: Competition assay: displacement of probe (R)-5 from stabilized BsFtsZ-GMPCPP polymers; type: binding; details: for Kd: stabilized polymers of FtsZ from B. subtilis, probe (R)-5, mean ± SEM, read-out: KD
T2 construct: made in house
Protocol: (§2) FtsZ (10–15 μM) was assembled in HEPES buffer, 10 mM MgCl2, 50 μM GMPCPP at 25 °C for 10 min, and then 0.15% (v/v) glutaraldehyde[36] (distilled grade for microscopy, TAAB Laboratories, U.K.) was added to the solution that was incubated at 25 °C for 10 min more. (This was the minimal glutaraldehyde concentration determined to stabilize FtsZ polymers specifically binding probe 1.) The remains of the cross-linking agent were quenched by adding 60 mM NaBH4, the sample was incubated on ice for 10 min and degassed.[36] Cross-linked polymers were centrifuged for 10 min at 8200g (5000 rpm) and 4 °C in 15 mL Falcon tubes employing a Rotina 380R (Hettich) centrifuge, the supernatant was removed and the pellet was resuspended in the same volume of HEPES buffer, 10 mM MgCl2, containing 5 μM GMPCPP. Fixed FtsZ polymers were active in binding assays after more than 2 days at 4 °C; they could also be frozen in liquid nitrogen with a small loss of binding capacity. […] Cross-linked polymers of SaFtsZ were similarly prepared.
Competition assays were performed by measuring, through the decrease in fluorescence anisotropy, the displacement of the fluorescent probes from stabilized FtsZ polymers. Increasing concentrations of competing ligands were added to the mixtures of cross-linked FtsZ polymers (10–15 μM) with probe 1 (3 μM), 7–8 μM FtsZ polymers with probe (S)-2 (3 μM), or 2–3 μM FtsZ polymers with (R)-5 (3 μM). HEPES buffer with 10 mM MgCl2 and 0.1 mM GMPCPP was employed, with a final volume of 0.5 mL, and the anisotropy measured at 25 °C. Under these conditions, the initial fraction of the probe bound was between 0.4 and 0.5. The fraction of the probe bound (Vb) was calculated [drawing 1] where rfree and rmax are the anisotropy values of the free and bound probes, respectively, and R is the ratio between the fluorescence intensities of the bound and free probe (Table S1). The binding data were plotted against the competing ligand concentration and fitted by competition equilibrium of the ligand and the probe for the same binding site. The resulting system of equations[50] was numerically solved using the Equigra v. 5.0 program,[33] which provided the best-fitted value of the competitor binding constant.

[3] = tested on: B. subtilis; assay: Minimal division inhibitory concentration and cell division phenotype, B. subtilis; type: cell-based, Bacillus subtilis; details: for minimal effective concentration: Bacillus subtilis, read-out: MDC B. subtilis; for toxicity to the bacterial cells, in words: B. subtilis cell division tests
Protocol: (§3) B. subtilis 168 and Staphylococcus spp. were grown in cation adjusted Mueller–Hinton broth (CAMHB; Becton, Dickinson and Company) at 37 °C. B. subtilis SU570 were grown in the same medium at 30 °C. In all cases, the cells were grown to an absorbance of 0.1–0.2 at 600 nm and then incubated either with the compounds or DMSO vehicle. Microscopy assays and cell measurement were performed as previously described.[31] MIC values were determined by a broth macrodilution method.[51] MBC values were determined as the lowest concentration of inhibitor at which there was a 99.9% reduction in colony-forming units/mL compared to the inoculum. To construct a S. aureus strain expressing FtsZ-mCherry, the plasmid pCN-ftsZmch[9] was electroporated into RN4220 and 0.1 μM cadmium chloride (Sigma-Aldrich) was used to induce the expression of the construct under the control of the Pcad promoter.

[4] = tested on: B. subtilis; assay: Minimal growth inhibitory concentration (broth macrodilution), B. subtilis; type: cell-based, Bacillus subtilis; details: for MIC: Bacillus subtilis; for MIC B. subtilis: Table S1, fluorescent probes
Protocol: as §3

[5] = tested on: S. aureus Mu50; assay: Minimal growth inhibitory concentration (broth macrodilution), S. aureus Mu50; type: cell-based, Staphylococcus aureus; details: for MIC: Staphylococcus aureus, MU50, read-out: MIC S. aureus Mu50; for MIC S. aureus Mu50: Table S1, fluorescent probes
Protocol: as §3

[6] = Solubility in HEPES buffer with 2% DMSO, spectrophotometric; type: physicochemical; details: HEPES buffer containing 2% DMSO, 25 °C, aqueous buffer, kinetic from dmso stock; HEPES buffer pH 6.8 containing 2% DMSO
Protocol: 3.2. Solubility of Compounds. Stock solutions of compounds were prepared in
DMSO (spectroscopic grade, Merck) a nd stored at -20 °C. Compound solubility in 50
mM HEPES-KOH, 50 mM KCl, 1 mM EDTA, pH 6.8 (HEPES buffer) containing 2%
DMSO was determined spectrophotometrically, monitoring the linear correlation
between the absorbance and the compound concentration and the absence of light
scattering. The solutions were optionally centrifuged at 100000 rpm for 20 min at 25 °C
in a TLA100 rotor with a Beckman Optima Max -XP ultracentrifuge.

[7] = target: T3, FtsZ-GMPCPP polymers (BsFtsZ) (Bacillus subtilis, UniProt P17865); assay: Binding titration of the fluorescent probes to FtsZ polymers by fluorescence anisotropy; details: for Imax/Imin / rmax (all probe bound) / rmin (free probe) / Kd: FtsZ-GMPCPP polymers, best fit values from binding titrations
T3 construct: made in house
Protocol: as §1
The fluorescence spectra and anisotropy values of the different probes were acquired with a Fluoromax-4 (Horiba Jobin Yvon) photon-counting L-format spectrofluorometer using 2 mm × 10 mm cells at 25 °C, employing the maximum excitation and emission wavelength for each probe with 2 and 5 nm bandwidths, respectively. Anisotropy values were automatically measured as r = (Ivv – G Ivh)/(Ivv + 2G Ivh), where the subscripts refer to the vertical (v) or horizontal (h) positions of the excitation (first subscript) and emission (second subscript) polarizers, and G = Ihv/Ihh. Total intensity values were simultaneously determined as IT = Ivv +2G Ivh. Note that measurement correction procedures with T-format (double channel) fluorometers and with plate readers are slightly different.
as §2
Binding affinity of the probes to FtsZ was measured by an increase in anisotropy of the probe (adapted from ref ([49])). Fixed concentrations of the probes (3 μM) were titrated with different FtsZ polymer concentrations (0–40 μM) in HEPES buffer with Mg^2+, to obtain the anisotropy increment, Δrmax, corresponding to the bound probe. The increase in anisotropy was plotted against the FtsZ polymer concentration (calculated by subtracting from the total protein concentration the critical concentration for polymerization under the same conditions) and iteratively least-squares fitted with an isotherm of binding to one site. The estimated values of Δrmax were used to approximate the free FtsZ concentrations, and these new values were employed again until an unchanging Δrmax value was obtained. The convergent data were used to calculate the binding constant of the fluorescent probe to FtsZ polymers (Table S1).

[8] = PC190723 10 μM added to the polymer, 5 min

T3 sequence (P17865 whole entry): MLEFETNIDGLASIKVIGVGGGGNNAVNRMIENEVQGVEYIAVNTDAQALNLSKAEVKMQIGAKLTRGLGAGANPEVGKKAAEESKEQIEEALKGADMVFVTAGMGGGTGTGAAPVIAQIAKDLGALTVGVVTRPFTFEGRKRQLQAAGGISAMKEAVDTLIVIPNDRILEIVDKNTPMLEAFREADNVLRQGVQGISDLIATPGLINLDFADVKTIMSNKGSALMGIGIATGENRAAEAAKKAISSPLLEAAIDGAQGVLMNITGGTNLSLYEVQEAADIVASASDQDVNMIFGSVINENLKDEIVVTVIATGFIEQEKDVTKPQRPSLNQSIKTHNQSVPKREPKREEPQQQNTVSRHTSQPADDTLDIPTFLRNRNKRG
T1 sequence (P17865 whole entry): as above
T2 sequence (P17865 whole entry): as above

Row | Molecule | Fluorescence anisotropy (r): + PC190723 [1, 8] | Fluorescence anisotropy (r): free probe [1] | Fluorescence anisotropy (r): + FtsZ (unassbld.) [1] | Fluorescence anisotropy (r): + GMPCPP [1] | Fluorescence anisotropy (r): + MgCl2 (polymer) [1] | Kd [2] [µM] | minimal effective concentration [3] [µM] | MIC ([4]; read-out: MIC B. subtilis) [µM] | MIC [5] [µM] | solubility [6] [µM] | further results
1 | CCCCCC(CNc1ccc([N+](=O)[O-])c2nonc12)Oc1ccc(F)c(C(N)=O)c1F (stereo not drawn) [Compound 3, 2,6-Difluoro-3-[(1-{[(7-nitro-2,1,3-benzoxadiazol-4-yl)amino]methyl}hexyl)oxy]benzamide] | 0.135 | 0.049 | 0.104 | 0.115 | 0.261 |  |  |  |  |  | 
2 | NC(=O)c1cccc(OCCCc2cccc(Cl)c2)c1 [Compound 13] |  |  |  |  |  | 9.5 ± 0.5 | 25 | 100 (≈ 29 µg/mL) | > 100 | 25 (≈ 7.24 µg/mL) | 
3 | CCC[C@H](CNc1ccc([N+](=O)[O-])c2nonc12)Oc1ccc(F)c(C(N)=O)c1F [(R)-2] | 0.051 | 0.037 | 0.046 | 0.050 | 0.081 |  |  |  |  |  | Imax/Imin [7]: 1.0; rmax (all probe bound) [7]: 0.067; rmin (free probe) [7]: 0.038; inhibition of B. subtilis cell division, in words [3]: inactive; MIC B. subtilis [4]: > 250 µM; MIC S. aureus Mu50 [5]: > 250 µM
4 | NC(=O)c1cccc(OCc2cccc(Cl)c2)c1 [Compound 11] |  |  |  |  |  | 9.3 ± 0.5 | 50 | 50 (≈ 13.1 µg/mL) | > 100 | 100 (≈ 26.2 µg/mL) | fold lower KD and MDC than 3-aminobenzamide analogue 6 [2]: more than 10 fold
5 | NC(=O)c1cccc(OCCc2cccc(Cl)c2)c1 [Compound 12] |  |  |  |  |  | 7.1 ± 0.5 | 50 | 100 (≈ 27.6 µg/mL) | > 100 | ≥ 100 | 
6 | CCC[C@@H](CNc1ccc([N+](=O)[O-])c2nonc12)Oc1ccc(F)c(C(N)=O)c1F [(S)-2] | 0.065 | 0.037 | 0.041 | 0.044 | 0.172 |  |  |  |  |  | Imax/Imin [7]: 2.4; rmax (all probe bound) [7]: 0.258; rmin (free probe) [7]: 0.028; Kd [7]: 8 ± 1 µM; MIC B. subtilis [4]: 250 µM (≈ 105 µg/mL); MIC S. aureus Mu50 [5]: > 250 µM
7 | CCC[C@@H](COc1ccc(F)c(C(N)=O)c1F)Nc1ccc([N+](=O)[O-])c2nonc12 [(S)-5] | 0.038 | 0.030 | 0.042 | 0.041 | 0.096 |  |  |  |  |  | fold reduced affinity with respect to (R)-5 [7]: 8 fold; Imax/Imin [7]: 1.7; rmax (all probe bound) [7]: 0.178; rmin (free probe) [7]: 0.025; Kd [7]: 15 ± 2 µM; MIC B. subtilis [4]: 250 µM (≈ 105 µg/mL); MIC S. aureus Mu50 [5]: > 250 µM
8 | CCCN(Cc1cccc(Cl)c1)c1cccc(C(N)=O)c1 [Compound 8] |  |  |  |  |  |  |  |  |  | 5 (≈ 1.51 µg/mL) | toxicity to the bacterial cells, in words [3]: toxic to the bacterial cells
9 | 2,6-Difluoro-3-[(1-{[(7-nitro-2,1,3-benzoxadiazol-4-yl)amino]methyl}nonyl)-oxy]benzamide [Compound 4] | 0.324 | 0.045 | 0.130 | 0.186 | 0.317 |  |  |  |  |  | 
10 | CCCC(COc1ccc(F)c(C(N)=O)c1F)Nc1ccc([N+](=O)[O-])c2nonc12 (stereo not drawn) [Compound 5, 2,6-Difluoro-3-{2-[(4-nitro-2,1,3-benzoxadiazol-7-yl)amino]pentoxy}benzamide] |  | 0.031 | 0.034 | 0.036 | 0.203 |  |  |  |  |  | Fluorescence anisotropy (r): + PC190723 ([1]; [PC190723] = 30 μM): 0.055
11 | NC(=O)c1c(F)ccc(OCc2ccccc2C(F)(F)F)c1F [Compound 19] |  |  |  |  |  | 71 ± 6 | > 100 | > 100 | > 100 | 50 (≈ 16.6 µg/mL) | 
12 | NC(=O)c1ccc(OCc2cccc(Cl)c2)cc1 [Compound 14] |  |  |  |  |  |  |  |  |  |  | toxicity to the bacterial cells, in words [3]: toxic; MIC [4]: > 500 µM
13 | CCCC(CNc1ccc([N+](=O)[O-])c2nonc12)Oc1ccc(F)c(C(N)=O)c1F (stereo not drawn) [Compound 2, 2,6-Difluoro-3-[(1-{[(7-nitro-2,1,3-benzoxadiazol-4-yl)amino]methyl}butyl)oxy]benzamide] | 0.053 | 0.037 | 0.039 | 0.046 | 0.157 |  |  |  |  |  | 
14 | NC(=O)c1c(F)ccc(OCc2ccc(C(F)(F)F)cc2)c1F [Compound 21] |  |  |  |  |  | 6.7 ± 0.4 | 25 | 50 (≈ 16.6 µg/mL) | 100 (≈ 33.1 µg/mL) | 100 (≈ 33.1 µg/mL) | 
